According to BigSolDB 2.1:

O=C(O)c1cccnc1Nc1cccc(C(F)(F)F)c1
solubility (mole fraction)
Conditions | 288.15 K | 293.15 K | 298.15 K | 303.15 K | 308.15 K | 313.15 K | 318.15 K | 323.15 K | 328.15 K
in MTBE | 0.0428 | 0.0471 | 0.0505 | 0.0549 | 0.0591 | 0.0663 | 0.073 | 0.08 | 0.0854
in acetone | 0.0273 | 0.0296 | 0.0315 | 0.034 | 0.037 | 0.0418 | 0.048 | 0.053 | 0.0572
in acetonitrile | – | 0.00125 | 0.0018 | 0.00235 | 0.00319 | 0.00437 | 0.00595 | 0.00745 | 0.00898
in cyclohexane | 0.00268 | 0.00379 | 0.00512 | 0.00674 | 0.00887 | 0.0114 | 0.0137 | 0.0158 | 0.0182
in diisopropyl ether | 0.00814 | 0.0119 | 0.0146 | 0.0183 | 0.022 | 0.0262 | 0.0303 | 0.0357 | 0.0424
in ethanol | 0.00748 | 0.00873 | 0.00935 | 0.0113 | 0.0133 | 0.0153 | 0.0177 | 0.0197 | 0.0211
in ethyl acetate | 0.0243 | 0.0261 | 0.0279 | 0.0308 | 0.0346 | 0.0393 | 0.0439 | 0.0494 | 0.0544
in isopropanol | 0.00751 | 0.00844 | 0.00941 | 0.0107 | 0.0131 | 0.0152 | 0.0179 | 0.0209 | 0.0235
in isopropyl acetate | 0.0228 | 0.0264 | 0.029 | 0.0324 | 0.0372 | 0.0435 | 0.05 | 0.0564 | 0.0637
in methanol | 0.00655 | 0.00766 | 0.00862 | 0.00967 | 0.0107 | 0.0118 | 0.0135 | 0.0151 | 0.0171
in n-heptane | 0.00171 | 0.00276 | 0.00404 | 0.00562 | 0.00726 | 0.00951 | 0.0121 | 0.0145 | 0.0172
in n-hexane | 0.00145 | 0.00256 | 0.00382 | 0.00539 | 0.00678 | 0.00896 | 0.011 | 0.0131 | 0.0155
in n-propanol | 0.00879 | 0.00999 | 0.011 | 0.0129 | 0.0147 | 0.0174 | 0.0202 | 0.0232 | 0.0266
in toluene | – | 0.00154 | 0.00242 | 0.00395 | 0.00532 | 0.0073 | 0.00991 | 0.0133 | 0.0172
